Measurements reported in publication PMC7926980, “The Antiproliferative and Apoptotic Effect of a Novel Synthesized S-Triazine Dipeptide Series, and Toxicity Screening in Zebrafish Embryos” (Molecules, 2021).

Experiments:
HEK-293 cells = test: MTT cell viability assay, non-tumorigenic HEK-293; format: cell-based; conditions: Homo sapiens, HEK293, 72 h, non-tumorigenic cell line
Description: Additional assays were run with 3a, the most promising compound. Its toxicity was evaluated using HEK-293 (normal human embryonic kidney), which is a non-tumorigenic cell line.
In order to calculate the relative IC50 values, the antiproliferative effect of compounds 3a–o was tested in three cancer cell lines (MCF-7, MDA-MB-231, HCT-116) and normal epithelial embryonic kidney cells (HEK-293) using the MTT viability assay. The cells were seeded in 96-well plates at a density of 10 × 10^3 cells/mL, in a total volume of 200 µL per well. In total, 0.1% DMSO was used as a vehicle control. After 24 h, the cells were treated with 2 µL of the test compound, which had been pre-prepared as a stock solution to furnish the concentration range of the study (0.01–100 µM), and re-incubated for 72 h. The culture medium was then removed, and the cells were washed with phosphate-buffered saline (PBS), and 100 µL MTT was added (for a final concentration of 5 mg/mL MTT). The cells were incubated for 4 h in darkness at 37 °C. Next, 200 µL DMSO was added to each well, and the cells were maintained at room temperature in darkness for 20 min. The absorbance was detected with a microplate reader at 570 nm. The results were expressed as a percentage of viability relative to the vehicle control (100%). […]

HCT-116 cells = test: MTT cell viability assay, HCT-116; format: cell-based; conditions: Homo sapiens, 72 h treatment
Description: The antiproliferative activity of the synthesized compounds was evaluated by the 3-(4,5-dimethylthiazol-2-yl)-2,5-diphenyl tetrazolium bromide (MTT) cell viability assay. Two types of breast cancer cell lines—namely MCF-7, which has estrogen and progesterone receptors, and MDA-MB-231, which is triple negative—were used, in addition to a colon cancer cell line (HCT-116).
The target products 3a–o were evaluated for their antiproliferative activity using the MTT viability assay of the MCF-7, MDA-MB-231 and HCT-116 cell lines (in triplicate) on at least three independent occasions for the determination of the reported mean values.
The three human tumor cell lines MCF-7, MDA-MB-231 and HCT-116 were cultured in Dulbecco’s Modified Eagle’s Medium (DMEM) with 10% fetal bovine serum, 2 mM L-glutamine and 100 µg/mL penicillin/streptomycin. The cells were maintained at 37 °C in 5% CO2 in a humidified incubator. All of the cells were sub-cultured 3 times/week by trypsinization using TrypLE Express (1×).
In order to calculate the relative IC50 values, the antiproliferative effect of compounds 3a–o was tested in three cancer cell lines (MCF-7, MDA-MB-231, HCT-116) and normal epithelial embryonic kidney cells (HEK-293) using the MTT viability assay. The cells were seeded in 96-well plates at a density of 10 × 10^3 cells/mL, in a total volume of 200 µL per well. In total, 0.1% DMSO was used as a vehicle control. […] The culture medium was then removed, and the cells were washed with phosphate-buffered saline (PBS), and 100 µL MTT was added (for a final concentration of 5 mg/mL MTT). The cells were incubated for 4 h in darkness at 37 °C. Next, 200 µL DMSO was added to each well, and the cells were maintained at room temperature in darkness for 20 min. The absorbance was detected with a microplate reader at 570 nm. The results were expressed as a percentage of viability relative to the vehicle control (100%). The dose-response curves were plotted, and the IC50 values were obtained using Prism software (GraphPad Software, Inc., La Jolla, CA, USA). All of the experiments were repeated in three independent experiments.

MCF-7 cells = test: Annexin V-FITC/PI apoptotic assay by flow cytometry; format: cell-based, human; conditions: 2 µM, 48 h; control 8.3%
Description: In order to determine the capacity of compound 3a to induce apoptosis, an Annexin V-FITC/PI dual staining assay was performed on the MCF-7 cells by flow cytometry.
Flow cytometry using Annexin V and propidium iodide (PI) was performed in order to detect apoptotic cell death. MCF-7 cells were seeded at a density of 1 × 10^5 cells/well, treated with the vehicle (0.1% (v/v) EtOH) or compound 3a (2 µM), and incubated for 48 h. The cells were then harvested and washed twice in 1X binding buffer, and incubated in the dark for 30 min on ice in Annexin V-containing binding buffer [1:100]. They were then re-suspended in PI-containing binding buffer [1:1000]. The samples were analyzed immediately using a BD Accuri flow cytometer, and GraphPad Prism software version 5.01 was used to analyze the data. Four populations were identified during the assay: Annexin V-negative and PI-negative (Q4, healthy cells), Annexin V-positive and PI-negative (Q3, early apoptosis), Annexin V-positive and PI-positive (Q2, late apoptosis), and Annexin V-negative and PI-positive (Q1, necrosis).
Figure 5 Compound 3a potently induces apoptosis in breast cancer MCF-7 cells (Annexin V/PI Fluorescence-activated cell sorting (FACS)). (A) Flow cytometry analysis of the effect of compound 3a on MCF-7 cells. […] (B) The quantitative analysis of the apoptosis. […]

`COC(=O)CNC(=O)CNc1nc(Nc2ccccc2)nc(N2CCOCC2)n1` [Compound 3a, Methyl (4-morpholino-6-(phenylamino)-1,3,5-triazin-2-yl) glycylglycinate] was tested, and the IC50 (HEK-293 cells) was greater than 50 µM, the IC50 (HCT-116 cells) was 17.9 ± 3.74 µM and the “Annexin V-positive cells (total apoptotic cells)” value (MCF-7 cells) was 37.4%.
